The values below are quoted from earlier work in article PMC3087488 (Journal of Oncology, 2011).

For one series, the system named is PDGFR. Details: method as in PMID 16951187. The conditions noted are these: cited from earlier work.
Another series concerns Kit. Details: method as in PMID 16951187. The note with it: cited from earlier work.

Regarding `CC1(C)CNc2cc(NC(=O)c3cccnc3NCc3ccncc3)ccc21` [motesanib], the results for the IC50 in the series with PDGFR and with Kit were 0.084 µM and […], respectively.
